Source: paper PMC11061835, “Elucidating the Mechanism of Metabolism of Cannabichromene by Human Cytochrome P450s” (Journal of Natural Products, 2024)
“And” between values parts separate entries of the source, which are not always exact repeats. Identical values can stand only once.

Assays:
[1] = In vivo metabolism of CBC, mouse blood plasma (LC-MS/MS); set-up: species or system mice
Experimental: CBC was dissolved in ethanol, and an aliquot was then mixed with Tween-80. Ethanol was removed by evaporation. The mixture was then reconstituted with PBS to a 6% final concentration of Tween-80. C 57BL/6J female mice, age 8–10 weeks, were injected with 20 mg/kg CBC or vehicle intravenously (IV, n = 3) via the tail vein or intraperitoneally (IP, n = 3). Blood samples were collected terminally by cardiac puncture into heparin-coated syringes at 0.5 and 2 h after CBC treatment and transferred into tubes. The tubes were then centrifuged, and plasma samples were removed and stored at −80 °C.
200 μL of blood plasma from each sample was taken into a glass tube, and 500 μL of extraction solvent (hexane:ethyl acetate 80:20 v/v) was added. The remaining extraction steps are similar to those used for CBC metabolite extraction from CYPs as mentioned earlier.
Samples were analyzed with the 5500 QTRAP LC/MS/MS system (Sciex, Framingham, MA) in the Metabolomics Lab of Roy J. Carver Biotechnology Center, University of Illinois at Urbana–Champaign. Software Analyst 1.7.1 was used for data acquisition and analysis. The 1200 series HPLC system (Agilent Technologies, Santa Clara, CA) includes a degasser, an autosampler, and a binary pump. The LC separation was performed on a Phenomenex Gemini C6-phenyl column (2 × 100 mm, 3 μm) with mobile phase A (0.1% formic acid in water) and mobile phase B (0.1% formic acid in acetonitrile). The flow rate was 0.2 mL/min. The linear gradient was as follows: 0–2 min, 95% A; 10 min, 50% A; 20–25 min, 0% A; 25.1–31 min, 95% A. The autosampler was set at 10 °C. The injection volume was 5 μL. Mass spectra were acquired under positive electrospray ionization (ESI) with the ion spray voltage of +5000 V. The source temperature was 400 °C. The curtain gas, ion source gas 1, and ion source gas 2 were 325, 65, and 55 psi, respectively. Multiple reaction monitoring (MRM) was used for quantitation: CBC m/z 315.1 → m/z 135.0; 1-acetoxy-6′,7′-dihydroxy-CBC (JM-I-73) m/z 349.1→ m/z 193.0; 1″-hydroxy-CBC (JM-I-66) m/z 331.1→ m/z 275.1; 6′,7′-epoxy-CBC (JM-I-27) m/z 331.1→ m/z 193.0; 7′,10′-ene-6′-hydroxy-CBC (JM-I-30) m/z 331.1→ m/z 193.0; 8′-hydroxy-CBC (JM-I-32) […]→ m/z 77.0. Internal standard EET-EA-d11 was monitored at m/z 375.2→ m/z 357.1.

[2] = target: T1, CYP2C8 (Homo sapiens, UniProt P10632); assay: Spectroscopic titration (Soret shift), CYP2C8; assay type: binding; settings: CYP2C8, absence of CPR
T1 construct: His-tag; made in house; host or cells: E. coli DH-5α with pTGro7 plasmid
T1 sequence (P10632 1-490): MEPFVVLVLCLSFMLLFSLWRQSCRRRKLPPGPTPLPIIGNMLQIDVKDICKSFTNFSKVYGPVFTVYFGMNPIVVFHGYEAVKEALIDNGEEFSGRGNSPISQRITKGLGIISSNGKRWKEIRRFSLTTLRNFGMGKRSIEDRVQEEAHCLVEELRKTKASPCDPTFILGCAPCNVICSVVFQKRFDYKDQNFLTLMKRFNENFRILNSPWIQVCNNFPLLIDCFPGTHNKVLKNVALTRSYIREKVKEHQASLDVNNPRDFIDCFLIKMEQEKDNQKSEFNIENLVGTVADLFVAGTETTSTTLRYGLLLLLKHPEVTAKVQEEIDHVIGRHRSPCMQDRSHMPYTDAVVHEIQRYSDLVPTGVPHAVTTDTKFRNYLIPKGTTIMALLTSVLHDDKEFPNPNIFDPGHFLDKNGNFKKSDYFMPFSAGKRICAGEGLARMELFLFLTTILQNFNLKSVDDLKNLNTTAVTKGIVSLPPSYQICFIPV
Experimental: CBC binding to various CYPs was determined by analyzing the Soret shift from ∼417 to ∼390 nm. CBC (stock 10 mM) was dissolved in ethanol and titrated with different CYPs at room temperature. Buffer-exchanged CYP2J2, CYP2D6, CYP3A4, and CYP2C8 (concentrations of proteins were kept between 4 and 5 μM) were dissolved in 0.1 M phosphate buffer (pH = 7.4), and initial spectra were recorded from 200 to 800 nm with a prominent peak at 417 nm. The concentration of CBC was varied from 0 to 100 μM keeping the final concentration of substrate in EtOH not more than 1% in cuvette. 0–4 μL of stock CBC was added using a Hamilton syringe in both the sample and blank cuvettes. The mixture was incubated for 5 min at 37 °C, and absorbance spectra were recorded using a Cary Bio 300 UV–vis spectrophotometer (Agilent Technologies, Santa Clara, CA). To eliminate the background absorbance, we derived the final spectra by […].

Row | SMILES | detection as product of CBC metabolism in mouse plasma ([1]; mice, CBC 20 mg/kg IV or IP, plasma at 0.5 and 2 h) | detection in blood plasma after 2 h of CBC administration ([1]; mice, both IP and IV, 2 h) | plasma concentration relative to the 6′,7′-epoxy compound ([1]; mouse plasma 0.5 h after CBC 20 mg/kg, depending on mode of administration (IP or IV)) | ΔAmax (spin state change due to heme perturbation) [2] | Kd ([2]; read-out: Kd(app))
1 | CCCCCc1cc(O)c2c(c1)OC(C)(CC/C=C(\C)CO)C=C2 (centres unmarked) [8′-hydroxy-CBC] | detected | not detected | 4–8 times |  | 
2 | CCCCCc1cc(O)c2c(c1)OC(C)(CCC=C(C)C)C=C2 (centres unmarked) [CBC, Cannabichromene] |  |  |  | 0.15 ± 0.00 and ~0.15 | 38.1 µM and ~38 µM
